# Assay results as given in US7947275B2 (Signe Biopharma, Inc., priority 2000, dated 2011).
# Values joined by “and” are separate entries in the source; they are usually repeats but may differ in a detail not shown here. Equal entries are not always repeated. Where two headings read alike, the source gives them in different places.
# Key:
# [1] = test system: progesterone receptors of MTW9/PL2 cells; test: Estrogen induction of progesterone receptors in MTW9/PL2 cells; assay type: cell-based, rat; details: 1.0×10^−8 M E2, within two days; two experiments
# Text: All results were normalized to “receptors per cell” to correct for growth over the duration of the experiment.
# LNCaP cells = test: Cell growth assay, LNCaP human prostatic carcinoma cells; assay type: cell-based; details: D-MEM/F-12 with CDE-horse serum, 10 nM steroid
# Method: Specific modifications of the customary cell growth assays were required for assays done under iron-restricted conditions. […] Serum-free components were added to “low-Fe” D-MEM/F-12 at double the concentrations needed (2X) or to “standard” D-MEM/F-12 at (2X) as the experiments dictated. Each assay dish received 1.0 mL of this solution. Next, the cells to be used in the assays were washed three times in either “low-Fe” medium or “standard” medium depending upon the experimental protocol.
# [2] = test system: progesterone receptors of T47D cells; test: Induction of progesterone receptors in T47D cells; assay type: cell-based, human; details: four days, phenol red free medium
# [3] = target: T1, CA-PS-Pool I (predominantly CBG) (Equus caballus, UniProt F7DRS2); test: Scatchard analysis of labeled steroid binding to CA-PS-pool I; design: species or system horse; details: 3H-labeled steroid, 34° C.; read-out: CA-PS-Pool I Kd
# T1 sequence (F7DRS2 23-406): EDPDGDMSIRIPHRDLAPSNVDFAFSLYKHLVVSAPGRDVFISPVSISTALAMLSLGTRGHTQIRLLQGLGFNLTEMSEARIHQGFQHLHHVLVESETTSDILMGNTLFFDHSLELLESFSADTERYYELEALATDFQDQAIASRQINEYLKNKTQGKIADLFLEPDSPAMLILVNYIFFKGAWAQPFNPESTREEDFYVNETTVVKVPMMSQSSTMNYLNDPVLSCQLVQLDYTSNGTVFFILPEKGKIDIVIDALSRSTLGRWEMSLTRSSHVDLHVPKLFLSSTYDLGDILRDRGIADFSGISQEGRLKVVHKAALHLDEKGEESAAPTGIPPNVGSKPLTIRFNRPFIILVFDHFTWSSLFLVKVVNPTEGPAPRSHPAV
# CA-PS-Pool II = test: Scatchard analysis of labeled steroid binding to CA-PS-pool II; design: species or system horse; details: 3H-labeled steroid, 34° C.
# [4] = test system: CA-PS-Pool II from rat serum; test: Scatchard analysis of labeled steroid binding to the SHBG-like pools from rat serum; details: 3H-labeled steroid
# [5] = test system: MCF-7A, T47D and MTW9/PL2 cells; test: Direct test of phenol red versus E2 as mitogen with three ER^+ cell lines; assay type: cell-based; details: phenol red free D-MEM/F-12 with 30% CDE-HS
# Method: Direct Test of Phenol Red Estrogenic Activity. Three cell lines were selected for a direct test of phenol red as a mitogen. […] This concentration was chosen even though it is not as inhibitory as 50% (v/v) serum. This selection was made to reduce possible interactions of the phenol red/contaminant with serum proteins while still retaining a significant inhibitory effect. Phenol red concentrations of up to 16 mg/L were added to this medium. This highest level was twice that in standard commercially formulated Gibco-BRL D-MEM/F-12. […] The preparations used in this study ranged in age from newly obtained to more than ten year old laboratory stocks.
# [6] = read-out: Kd of ^3H-E2 specific binding
# [7] = read-out: Kd of ^3H-E2 specific binding; remark: listed apart in the source
# ERβ = details: Transfection Studies, ERβ only; cited from earlier work
# human SHBG = human SHBG (Homo sapiens, UniProt P04278); details: 37° C.; cited from earlier work
# [8] = target: estrogen receptor of H301 cells (Mesocricetus auratus, UniProt Q9QZJ5); details: cited from earlier work
# H301 cells = test: Cell growth assay, H301 kidney tumor cells; details: serum-free defined CAPM
# T47D cells = test: Cell growth assay, T47D human breast cancer cells; details: serum-free DDM-2MF ± 10 nM E2
# GH4C1 cells = test: Cell growth assay, GH4C1 rat pituitary tumor cells; details: serum-free PCM-9
# MCF-7K cells = test: Cell growth assay, MCF-7K human breast cancer cells; details: serum-free DDM-2MF ± 10 nM E2, 12 days
# ZR-75-1 cells = test: Cell growth assay, ZR-75-1 human breast cancer cells; details: serum-free defined DDM-2MF
# [9] = target: T2, estrogen receptors of intact T47D cells (Homo sapiens, UniProt P03372); test: Displacement of ^3H-E2 binding to intact T47D cells; details: 5 nM ^3H-E2, two hours at 37° C.; r9-r14: 2.5, 5.0, 50, 250, 500, 1000 nM Unlabeled E2; r15-r19: 1, 2, 4, 5, 16 mg/L Phenol Red
# T2 construct: endogenous in cells; host or cells: T47D human breast cancer cells
# HT-29 cells = test: Cell growth assay, HT-29 human colon cancer cells; assay type: cell-based; details: CAPM with plasma IgM at 40 μg/mL, increasing concentrations of T3
# Text: General Cell Culture—Growth Assay Methods.
# General Cell Culture—Harvest and Counting Cells.
# General Cell Culture—Quantification of Growth.
# [10] = test system: GH4C1, GH1 and GH3 rat pituitary tumor cell lines; test: Thyroid hormone growth effects with GH cell lines in CDE-horse serum; assay type: cell-based
# Method: Thyroid Hormone Responsive Pituitary Tumor Cell Growth in CDE-Serum Prepared at 34° C. […] Nonetheless, the 34° C. […] It is known that the thyroid hormone receptor is a member of a superfamily of receptors that also includes the steroid hormone receptors (Evans R M (1988) Science (Wash D.C.) 240:889-895). Testing of substances expected to have thyroid hormone like activity can be performed with the GH cell lines in the presence of low concentrations of CDE-serum.
# Sequence of estrogen receptor of H301 cells (Q9QZJ5 whole entry): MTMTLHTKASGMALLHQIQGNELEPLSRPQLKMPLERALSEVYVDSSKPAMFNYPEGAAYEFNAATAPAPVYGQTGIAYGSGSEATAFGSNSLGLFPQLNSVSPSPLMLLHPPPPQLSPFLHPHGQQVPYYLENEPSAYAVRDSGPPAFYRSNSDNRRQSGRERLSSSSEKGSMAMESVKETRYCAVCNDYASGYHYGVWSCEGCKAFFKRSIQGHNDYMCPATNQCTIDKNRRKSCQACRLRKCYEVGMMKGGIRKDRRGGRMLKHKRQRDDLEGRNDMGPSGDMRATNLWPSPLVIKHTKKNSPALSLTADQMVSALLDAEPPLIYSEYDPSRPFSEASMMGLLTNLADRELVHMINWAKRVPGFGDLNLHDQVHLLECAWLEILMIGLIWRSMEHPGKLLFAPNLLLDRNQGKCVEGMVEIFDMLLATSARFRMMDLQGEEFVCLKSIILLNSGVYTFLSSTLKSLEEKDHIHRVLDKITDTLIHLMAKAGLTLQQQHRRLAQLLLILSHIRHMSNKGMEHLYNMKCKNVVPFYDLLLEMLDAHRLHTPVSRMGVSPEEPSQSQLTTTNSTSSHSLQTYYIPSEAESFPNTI
# Sequence of human SHBG (P04278 30-402): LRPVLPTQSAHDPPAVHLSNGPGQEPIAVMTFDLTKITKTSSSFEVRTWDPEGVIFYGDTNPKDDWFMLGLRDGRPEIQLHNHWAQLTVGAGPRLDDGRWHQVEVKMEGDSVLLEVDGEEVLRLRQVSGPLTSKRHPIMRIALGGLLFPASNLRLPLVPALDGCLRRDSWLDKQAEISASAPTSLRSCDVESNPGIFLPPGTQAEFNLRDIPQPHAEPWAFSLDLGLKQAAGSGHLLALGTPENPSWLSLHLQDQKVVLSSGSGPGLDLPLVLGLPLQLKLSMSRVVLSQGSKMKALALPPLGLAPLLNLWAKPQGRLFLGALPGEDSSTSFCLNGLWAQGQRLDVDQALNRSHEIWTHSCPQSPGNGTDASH
smiles,measurement,setting,value
"C[C@]12CC[C@@H]3c4ccc(O)cc4CC[C@H]3[C@@H]1CC[C@@H]2O [E2, 17β-estradiol]",increase in number of progesterone receptors per cell,[1],1.8 fold and 2.0 fold
same,reversal of the inhibition caused by CDE-horse serum,LNCaP cells,reversed the CDE-serum caused inhibition completely
same,increase in progesterone receptors,[2]; 1.0×10^−8 M,four
same,increase in progesterone receptor content,[2]; 1.0×10^−12 M,two
same,Kd,[3],10500 nM
same,CA-PS-Pool II Ka,CA-PS-Pool II,3.55e+07 M⁻¹
same,CA-PS-Pool II Ka,[4],2.4e+07 M⁻¹
same,Kd,[4],41 nM
same,growth responses to the natural hormone,[5],2 to 5 CPD
same,Kd,[6],20 to 50 nM
same,Kd,[7],20 to 50 nM
same,"Kd for E2, CELL EXTRACTS",ERβ,0.05 to 0.1 × 10^−9 M
same,Ka of purified human SHBG,human SHBG,2.2e+08 M⁻¹
same,Kd,"[8]; read-out: Kd for E2, CELL EXTRACTS",0.87 nM
same,Kd,"[8]; read-out: Kd for E2, Table 5: lowest Kd",0.87 nM
same,Kd,"[8]; read-out: Kd for E2, WHOLE CELLS",1 nM
same,effect of estrogen in serum-free defined medium without inhibitor,H301 cells,had no effect on H301 cell growth
same,effect of estrogen in serum-free defined medium without inhibitor,T47D cells,0.5 to 1.0 CPD
same,effect of estrogen in serum-free defined medium without inhibitor,T47D cells; listed as estrogen,1.0 CPD
same,effect of E2 in serum-free defined medium without inhibitor,GH4C1 cells,had no effect on growth rate or saturation density
same,effect of E2 in serum-free defined medium without inhibitor,MCF-7K cells,had no effect on growth rate or saturation density
same,effect of E2 in serum-free defined medium without inhibitor,ZR-75-1 cells,no effect
O=S1(=O)OC(c2ccc(O)cc2)(c2ccc(O)cc2)c2ccccc21 [Phenol Red],Percent of Control,[9],102% and 111% and 94% and 99% and 110%
"N[C@@H](Cc1cc(I)c(Oc2ccc(O)c(I)c2)c(I)c1)C(=O)O [T3, 3′, 5-Triiodothyronine]",thyroid hormone reversal of the IgM inhibition,HT-29 cells,restored growth
same,"growth effect, result in words",[10]; 50% (v/v) CDE-horse serum,only supraphysiologic concentrations of thyroid hormone showed growth effects
same,"growth effect, result in words",[10]; D-MEM/F-12 with […] (v/v) CDE-horse serum,caused substantial growth
